According to patent US6063789A, “Aminoisoquinolines and aminotheinopyridine derivatives and their use as anti-inflammatory agents” (priority 1996, dated 2000):
Counter-ions that a name gives are not always drawn.

Key:
[1] = cited from J Med. Chem., vol 20, No 3, March 1977, pp 449 to 452; cited from earlier work
[2] = target: T1, inducible isoform of the enzyme nitric oxide synthase (NOS) (Mus musculus, UniProt P29477); experiment: nitric oxide synthetase activity screen (conversion of 3H-L-arginine to 3H-L-citrulline by lysate of induced J774A-1 macrophages); format: biochemical; conditions: lysate of LPS/IFNg-induced murine macrophage J774A-1 cells; 1 hour at room temperature; read-out: IC50 (the concentration of drug substance which gives 50% enzyme inhibition in the assay)
T1 construct: Nitric oxide synthase is produced by cells in response to interferon-g (IFNg) and lipopolysaccharide (LPS); endogenous in cells; host or cells: J774A-1 murine macrophage cell line, induced with LPS and IFN-gamma; crude cell lysate

Row | SMILES | IC50 [2] [µM] | antihypertensive activity [1]
1 | NC1=NCCc2ccccc21 [1-amino-3,4-dihydroisoquinoline] |  | has antihypertensive activity
2 | C#CC1Cc2ccccc2C(N)=N1 (centres unmarked) [Example 41, 1-Amino-3-ethynyl-3,4-dihydroisoquinoline hydrochloride] | < 25 | 
3 | NC1=NC(c2ccccc2)Cc2ccccc21 (centres unmarked) [Example 2, 1-Amino-3-phenyl-3,4-dihydroisoquinoline hydrochloride] | < 25 | 

Now from value to compound, other results behind:

Row | IC50 [2] [µM] | SMILES | antihypertensive activity [1]
4 | < 25 | CC1Cc2ccccc2C(N)=N1 (centres unmarked) [Example 49, 1-Amino-3-methyl-3,4-dihydroisoquinoline hydroiodide] | 
5 | < 25 | NC1=NC(c2nccs2)Cc2ccccc21 (centres unmarked) [Example 46, 1-Amino-3-(2-thiazolyl)-3,4-dihydroisoquinoline hydrochloride] | 
